Measured values published in paper PMC8426295, “Cytotoxic and radiosensitising effects of a novel thioredoxin reductase inhibitor in breast cancer” (Investigational New Drugs, 2021).

Assays:
[1] = parameters: method as in PMID 27217046; details: clinical; cited from earlier work
[2] = parameters: method as in PMID 22509926; details: cited from earlier work
TrxR = molecular target: T1, TrxR (Homo sapiens, UniProt Q16881); assay: Thioredoxin reductase activity assay (insulin reduction) on lysates of drug-treated breast cancer cells; format: cell-based; details: 1000 nM; for inhibition of TrxR activity: 48 h
T1 sequence (Q16881 1-649): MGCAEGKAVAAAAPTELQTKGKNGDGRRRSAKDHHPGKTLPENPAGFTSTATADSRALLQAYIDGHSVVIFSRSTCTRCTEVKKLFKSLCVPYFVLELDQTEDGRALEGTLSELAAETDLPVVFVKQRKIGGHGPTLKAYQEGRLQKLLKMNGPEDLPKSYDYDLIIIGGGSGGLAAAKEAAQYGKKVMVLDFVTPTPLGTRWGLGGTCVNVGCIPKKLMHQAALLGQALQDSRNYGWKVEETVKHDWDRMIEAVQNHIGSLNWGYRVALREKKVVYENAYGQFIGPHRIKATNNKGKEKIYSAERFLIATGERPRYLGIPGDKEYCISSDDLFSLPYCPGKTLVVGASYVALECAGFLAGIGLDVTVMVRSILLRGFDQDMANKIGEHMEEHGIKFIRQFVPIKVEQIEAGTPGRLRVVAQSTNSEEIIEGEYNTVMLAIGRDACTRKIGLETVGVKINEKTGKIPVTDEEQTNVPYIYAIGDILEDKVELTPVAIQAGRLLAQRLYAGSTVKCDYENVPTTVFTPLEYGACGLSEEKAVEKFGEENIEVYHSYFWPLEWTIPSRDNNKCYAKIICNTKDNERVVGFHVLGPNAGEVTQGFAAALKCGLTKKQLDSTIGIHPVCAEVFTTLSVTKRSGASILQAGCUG
Protocol: TrxR enzyme activity was assessed using an insulin reduction assay. Briefly, 2 × 10^6 cells were seeded, in triplicate, in 75c m^2 tissue culture flasks. After 24 h, sub-confluent cells were treated with either IQ9 (0–1000 nM) or 1000 nM auranofin (as a positive control) for 4 or 48 h, then trypsinised, washed, and resuspended in M-PER™ Mammalian Protein Extraction Reagent (ThermoFisher, USA) supplemented with 1X Halt protease inhibitor and EDTA. Protein concentration was determined using the Bradford assay. 80 μg of protein lysates isolated from each treatment conditions and reaction mix (HE buffer (100 mM HEPES pH 7.2, 5 mM EDTA), 20 μM Trx, 1.7 mM insulin, 10 mM β-NADPH) were added to the 96-well plate and incubated for 1 h at 37 °C. The reaction was stopped by adding stop buffer containing 6 M guanidine hydrochloride, 50 mM Tris, and 10 mM DTNB (Sigma, UK), with a final pH of 8.0. The plate was read at room temperature using a BMG Fluostar Optima Microplate Reader at 412 nm wavelength. The TrxR activity was expressed as the percentage of control, no drug-treated.

renal cancer lines = tested on: renal cancer lines; parameters: method as in PMID 28810535; details: cited from earlier work
breast cancer lines = tested on: breast cancer lines; parameters: method as in PMID 31366901; details: cited from earlier work
breast cancer cell lines = assay: Cell proliferation assay, stated across all cell lines; format: cell-based, human; details: 400–600 nM, 48 h
Protocol: 1 × 10^5 cells (2 × 10^5 for T47D’s) were seeded, in triplicate, in 6-well plates and incubated overnight before being treated with IQ9 (0–5000 nM) or doxorubicin (400–600 nM) (positive control and comparator). Total cells were counted after 48 h using a haemocytometer. The total cell count in drug treatment wells was normalised as a percentage of the total cells in vehicle control wells.

## O=c1[nH]cc(F)c(=O)[nH]1 [5-FU, 5-fluorouracil]
[1]
  half-life: less than 20 min

## Cn1c(/C=C/CO)c(CO)c2c1C(=O)C=C(N1CC1)C2=O [EO9]
[2]
  clearance: rapid clearance

## CC(=O)OC[C@H]1O[C@@H]([S-])[C@H](OC(C)=O)[C@@H](OC(C)=O)[C@@H]1OC(C)=O.CCP(CC)CC.[Au+] [auranofin, reference compound]
TrxR; 4 h, across all cell lines
  decrease in TrxR activity: 70–100%
TrxR; MDA-MB-231
  inhibition of TrxR activity: approximately 80%
TrxR; T47D, compared to control
  inhibition of TrxR activity: 10%

## COc1cc(/C=C/C(=O)CC(=O)/C=C/c2ccc(O)c(OC)c2)ccc1O [curcumin]
Renal cancer lines
  SER: 1.42
Breast cancer lines
  SER: 1.38–1.78

## COc1cccc2c1C(=O)c1c(O)c3c(c(O)c1C2=O)C[C@@](O)(C(=O)CO)C[C@@H]3O[C@H]1C[C@H](N)[C@H](O)[C@H](C)O1 [doxorubicin]
Breast cancer cell lines
  decrease in cell number: 50–70%
